Measurements reported in PubChem BioAssay (NCI).
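Dose response: 5 concentrations. Exposure: 48 h. Format: 96-well plates. Endpoint: linear interpolation; highest concentration if not reached. The concentration for 50% growth inhibition is given as GI50. Definition used: TGI = concentration required for complete inhibition of growth.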

Columns and labels:
Assay in all cases: inhibition of tumour cell growth, NCI panel, 48 h
SF-539 CNS = system: SF-539 CNS
SW-620 colon = system: SW-620 colon
SR leukemia = system: SR leukemia
NCI-H23 lung = system: NCI-H23 lung
OVCAR-8 ovarian = system: OVCAR-8 ovarian
TK-10 renal = system: TK-10 renal
SN12C renal = system: SN12C renal
OVCAR-4 ovarian = system: OVCAR-4 ovarian

| Compound | TGI (SF-539 CNS) [µM] | TGI (SW-620 colon) [µM] | TGI (SR leukemia) [µM] | TGI (NCI-H23 lung) [µM] | TGI (OVCAR-8 ovarian) [µM] | TGI (TK-10 renal) [µM] | TGI (SN12C renal) [µM] | TGI (OVCAR-4 ovarian) [µM] | GI50 (SF-539 CNS) [µM] | GI50 (SW-620 colon) [µM] | GI50 (SR leukemia) [µM] | GI50 (NCI-H23 lung) [µM] | GI50 (TK-10 renal) [µM] | GI50 (SN12C renal) [µM] | GI50 (OVCAR-4 ovarian) [µM] |
| --- | --- | --- | --- | --- | --- | --- | --- | --- | --- | --- | --- | --- | --- | --- | --- |
| NNC(=S)N/N=C(\c1nc2ccc(Cl)cc2[nH]c1=O)C(O)c1cccc([N+](=O)[O-])c1 (stereo not drawn) | > 47.5 | 41.9 | 33.8 | > 61.9 | > 100 | > 100 | > 100 | > 100 | – | – | – | – | – | – | – |
| CC[C@@]1(O)C(=O)OCc2c1cc1n(c2=O)Cc2cc3c(N)c(OC)ccc3nc2-1 | 0.0932 | 2.87 | – | 0.142 | – | > 50 | 0.126 | 1.36 | 0.0139 | 0.137 | < 0.01 | 0.0213 | 2.26 | 0.0124 | 0.229 |
| C=CCN=C1NC(=O)C(CC(=O)Nc2ccc([N+](=O)[O-])cc2[N+](=O)[O-])S1 (stereo not drawn) | > 100 | > 100 | – | > 100 | > 100 | > 100 | > 100 | > 100 | – | – | – | – | – | – | – |
| O=C1CC2=CCCC2O1 (stereo not drawn) | > 100 | > 100 | – | > 100 | > 100 | > 100 | > 100 | > 100 | – | – | – | – | – | – | – |
| O=C1c2ccccc2C(=O)N1CCN(CCN1C(=O)c2ccccc2C1=O)Cc1ccccc1 | – | > 100 | > 100 | > 100 | > 100 | > 100 | > 100 | > 100 | – | – | – | – | – | – | – |
| CC(=O)CC(=O)Nc1ccc(OS(N)(=O)=O)cc1 | > 100 | > 100 | > 100 | > 100 | > 100 | > 100 | > 100 | > 100 | – | – | – | – | – | – | – |
| O=C1C=C(c2ccccc2)NC1(c1ccccc1)c1cc(-c2ccccc2)[nH]c1-c1ccccc1 (stereo not drawn) | > 100 | > 100 | > 100 | > 100 | > 100 | – | > 100 | > 100 | – | – | – | – | – | – | – |
| COc1cc(Br)c(/C=N/N=C(\N)NO)cc1OC | 58.7 | > 100 | > 100 | 69 | 76 | > 100 | 83.2 | > 100 | – | – | – | – | – | – | – |
| O=S(=O)(c1ccccc1)C1(C2(S(=O)(=O)c3ccccc3)CCN=N2)CCN=N1 (stereo not drawn) | > 100 | > 100 | > 100 | > 100 | > 100 | > 100 | > 100 | > 100 | – | – | – | – | – | – | – |
